Assay results published in ChEMBL document CHEMBL3826930, “Antitumor activities of biscoumarin and dihydropyran derivatives” (Bioorg Med Chem Lett, 2016).
In brackets after ≈: the same amount, converted by molar mass.

Assays:
4T1 [1] = experiment: Antiproliferative activity against mouse 4T1 cells after 48 hrs by MTT assay; assay type: functional, cell-based; settings: 4T1, 48 h
[2] = Antiproliferative activity against human HuTu 80 cells after 48 hrs by MTT assay; assay type: functional, cell-based; settings: HuTu80, 48 h
[3] = Antiproliferative activity against human PANC1 cells after 48 hrs by MTT assay; assay type: functional, cell-based; settings: PANC-1, 48 h
HEK293 [4] = experiment: (§1) Cytotoxicity against HEK293 cells assessed as reduction in cell survival after 48 hrs by MTT assay; assay type: cell-based, Homo sapiens; settings: Homo sapiens, HEK293, 48 h
[5] = as §1; assay type: cell-based, Homo sapiens; settings: human, HEK293 cells
HEK293 [6] = experiment: Selectivity index, ratio of IC50 for HEK293 cells to IC50 for mouse 4T1 cells; assay type: functional
Mus musculus [7] = experiment: Acute toxicity in Kunming mouse assessed as structural abnormality in liver at 500 mg/kg, administered as single dose after 14 days by hematoxylin and eosin staining based histological analysis; assay type: organism-based; settings: in vivo, 336 h
Mus musculus [8] = experiment: Acute toxicity in Kunming mouse assessed as survival at 500 mg/kg, administered as single dose measured on day 14 post dose; assay type: organism-based; settings: in vivo
[9] = (§2) Cytotoxicity against HUVEC assessed as reduction in cell survival after 48 hrs by MTT assay; assay type: cell-based, Homo sapiens; settings: human, HUVEC cells
HUVEC = experiment: as §2; assay type: cell-based, Homo sapiens; settings: Homo sapiens, HUVEC, 48 h
Mus musculus [10] = experiment: Acute toxicity in Kunming mouse assessed as tremor induction at 500 mg/kg, administered as single dose after 14 days; assay type: organism-based; settings: in vivo, 336 h
Mus musculus [11] = experiment: Acute toxicity in Kunming mouse assessed as physical/abnormal changes in skin at 500 mg/kg, administered as single dose after 14 days; assay type: organism-based; settings: in vivo, 336 h
Mus musculus [12] = experiment: Acute toxicity in Kunming mouse assessed as sleep pattern abnormality at 500 mg/kg, administered as single dose after 14 days; assay type: organism-based; settings: in vivo, 336 h
Mus musculus [13] = experiment: Acute toxicity in Kunming mouse assessed as physical/abnormal changes in mucus membrane at 500 mg/kg, administered as single dose after 14 days; assay type: organism-based; settings: in vivo, 336 h
HEK293 [14] = experiment: Selectivity index, ratio of IC50 for HEK293 cells to IC50 for human HuTu 80 cells; assay type: functional
HuTu80 = experiment: Selectivity index, ratio of IC50 for HUVEC to IC50 for human HuTu 80 cells
PANC-1 = experiment: Selectivity index, ratio of IC50 for HUVEC to IC50 for human PANC1 cells
Mus musculus [15] = experiment: Acute toxicity in Kunming mouse assessed as physical/abnormal changes in fur at 500 mg/kg, administered as single dose after 14 days; assay type: organism-based; settings: in vivo, 336 h
Mus musculus [16] = experiment: Acute toxicity in Kunming mouse assessed as physical/abnormal changes in eyes at 500 mg/kg, administered as single dose after 14 days; assay type: organism-based; settings: in vivo, 336 h
Mus musculus [17] = experiment: Acute toxicity in Kunming mouse assessed as structural abnormality in kidney at 500 mg/kg, administered as single dose after 14 days by hematoxylin and eosin staining based histological analysis; assay type: organism-based; settings: in vivo, 336 h
Mus musculus [18] = experiment: Acute toxicity in Kunming mouse assessed as induction of salivation at 500 mg/kg, administered as single dose after 14 days; assay type: organism-based; settings: in vivo, 336 h
Mus musculus [19] = experiment: Acute toxicity in Kunming mouse assessed as behavior pattern abnormality at 500 mg/kg, administered as single dose after 14 days; assay type: organism-based; settings: in vivo, 336 h
HEK293 [20] = experiment: Selectivity index, ratio of IC50 for HEK293 cells to IC50 for human PANC1 cells; assay type: functional
4T1 [21] = experiment: Selectivity index, ratio of IC50 for HUVEC to IC50 for mouse 4T1 cells

## COc1cc(C2C(C#N)=C(N)OC3=C2C(=O)CC3)cc(OC)c1OC (stereo not drawn)
4T1 [1]
  IC50: 153 µg/mL (≈ 448 µM)
  IC90: 365 µg/mL (≈ 1070 µM)
[2]
  IC50: 185 µg/mL (≈ 541 µM)
  IC90: 360 µg/mL (≈ 1050 µM)
[3]
  IC50: 200 µg/mL (≈ 583 µM)
  IC90: 391 µg/mL (≈ 1140 µM)

## N#Cc1ccc(C(c2c(O)c3ccccc3oc2=O)c2c(O)c3ccccc3oc2=O)cc1
HEK293 [4]
  IC50: 180 µg/mL (≈ 411 µM)
[5]
  IC90 at 48 h: 343 µg/mL (≈ 783 µM)
4T1 [1]
  IC50: 51.5 µg/mL (≈ 118 µM)
  IC90: 102 µg/mL (≈ 233 µM)
HEK293 [6]
  Ratio IC50: 3.5
Mus musculus [7]
  Activity: Non-toxic
Mus musculus [8]
  Activity: Non-toxic
[9]
  IC90 at 48 h: 322 µg/mL (≈ 735 µM)
HUVEC
  IC50: 162 µg/mL (≈ 371 µM)
Mus musculus [10]
  Activity: Non-toxic
Mus musculus [11]
  Activity: Non-toxic
Mus musculus [12]
  Activity: Non-toxic
[2]
  IC50: 47.6 µg/mL (≈ 109 µM)
  IC90: 98.3 µg/mL (≈ 225 µM)
Mus musculus [13]
  Activity: Non-toxic
HEK293 [14]
  Ratio IC50: 3.8
[3]
  IC50: 93.5 µg/mL (≈ 214 µM)
  IC90: 202 µg/mL (≈ 461 µM)
HuTu80
  Ratio IC50: 3.4
PANC-1
  Ratio IC50: 1.73
Mus musculus [15]
  Activity: Non-toxic
Mus musculus [16]
  Activity: Non-toxic
Mus musculus [17]
  Activity: Non-toxic
Mus musculus [18]
  Activity: Non-toxic
Mus musculus [19]
  Activity: Non-toxic
HEK293 [20]
  Ratio IC50: 1.9
4T1 [21]
  Ratio IC50: 3.1

## N#CC1=C(N)Oc2c(c(=O)oc3ccccc23)C1c1ccc([N+](=O)[O-])cc1 (stereo not drawn)
4T1 [1]
  IC50: 142 µg/mL (≈ 394 µM)
  IC90: 289 µg/mL (≈ 801 µM)
[2]
  IC50: 97 µg/mL (≈ 268 µM)
  IC90: 187 µg/mL (≈ 518 µM)
[3]
  IC50: 218 µg/mL (≈ 604 µM)
  IC90: 348 µg/mL (≈ 963 µM)

## N#CC1=C(N)OC2=C(C(=O)CC2)C1c1ccc(Cl)cc1Cl (stereo not drawn)
4T1 [1]
  IC50: 127 µg/mL (≈ 396 µM)
  IC90: 307 µg/mL (≈ 955 µM)
[2]
  IC50: 150 µg/mL (≈ 466 µM)
  IC90: 302 µg/mL (≈ 941 µM)
[3]
  IC50: 156 µg/mL (≈ 486 µM)
  IC90: 325 µg/mL (≈ 1010 µM)

## COc1ccccc1C(c1c(O)c2ccccc2oc1=O)c1c(O)c2ccccc2oc1=O
HEK293 [4]
  IC50: 117 µg/mL (≈ 264 µM)
[5]
  IC90 at 48 h: 282 µg/mL (≈ 638 µM)
4T1 [1]
  IC50: 52.2 µg/mL (≈ 118 µM)
  IC90: 133 µg/mL (≈ 301 µM)
HEK293 [6]
  Ratio IC50: 2.2
Mus musculus [7]
  Activity: Non-toxic
Mus musculus [8]
  Activity: Non-toxic
[9]
  IC90 at 48 h: 269 µg/mL (≈ 607 µM)
HUVEC
  IC50: 119 µg/mL (≈ 270 µM)
Mus musculus [10]
  Activity: Non-toxic
Mus musculus [11]
  Activity: Non-toxic
Mus musculus [12]
  Activity: Non-toxic
[2]
  IC50: 17.9 µg/mL (≈ 40.5 µM)
  IC90: 110 µg/mL (≈ 248 µM)
Mus musculus [13]
  Activity: Non-toxic
HEK293 [14]
  Ratio IC50: 6.5
[3]
  IC50: 62.1 µg/mL (≈ 140 µM)
  IC90: 110 µg/mL (≈ 249 µM)
HuTu80
  Ratio IC50: 6.7
PANC-1
  Ratio IC50: 1.9
Mus musculus [15]
  Activity: Non-toxic
Mus musculus [16]
  Activity: Non-toxic
Mus musculus [17]
  Activity: Non-toxic
Mus musculus [18]
  Activity: Non-toxic
Mus musculus [19]
  Activity: Non-toxic
HEK293 [20]
  Ratio IC50: 1.9
4T1 [21]
  Ratio IC50: 2.3

## CC(C)(C)c1ccc(C2C(C#N)=C(N)OC3=C2C(=O)CC3)cc1 (stereo not drawn)
4T1 [1]
  IC50: 117 µg/mL (≈ 378 µM)
  IC90: 288 µg/mL (≈ 936 µM)
[2]
  IC50: 103 µg/mL (≈ 334 µM)
  IC90: 233 µg/mL (≈ 757 µM)
[3]
  IC50: 219 µg/mL (≈ 711 µM)
  IC90: 435 µg/mL (≈ 1410 µM)

## CC(C)c1ccc(C2C(C#N)=C(N)Oc3c2c(=O)oc2ccccc32)cc1 (stereo not drawn)
4T1 [1]
  IC50: > 300 µg/mL
  IC90: > 500 µg/mL
[2]
  IC50: 238 µg/mL (≈ 664 µM)
  IC90: > 500 µg/mL
[3]
  IC50: 256 µg/mL (≈ 715 µM)
  IC90: > 500 µg/mL

## N#CC1=C(N)Oc2c(c(=O)oc3ccccc23)C1c1ccc(Br)cc1 (stereo not drawn)
4T1 [1]
  IC50: > 300 µg/mL
  IC90: > 500 µg/mL
[2]
  IC50: > 300 µg/mL
  IC90: 447 µg/mL (≈ 1130 µM)
[3]
  IC50: > 300 µg/mL
  IC90: > 500 µg/mL

## CC1(C)CC(=O)C2=C(C1)OC(N)=C(C#N)C2c1cc(C(F)(F)F)cc(C(F)(F)F)c1 (stereo not drawn)
4T1 [1]
  IC50: > 300 µg/mL
  IC90: > 500 µg/mL
[2]
  IC50: > 300 µg/mL
  IC90: > 500 µg/mL
[3]
  IC50: > 300 µg/mL
  IC90: > 500 µg/mL

## N#CC1=C(N)Oc2c(c(=O)oc3ccccc23)C1c1ccc(C#N)cc1 (stereo not drawn)
4T1 [1]
  IC50: > 300 µg/mL
  IC90: > 500 µg/mL
[2]
  IC50: > 300 µg/mL
  IC90: > 500 µg/mL
[3]
  IC50: > 300 µg/mL
  IC90: > 500 µg/mL

## COc1cccc(C2C(C#N)=C(N)OC3=C2C(=O)CC(C)(C)C3)c1 (stereo not drawn)
4T1 [1]
  IC50: 248 µg/mL (≈ 764 µM)
  IC90: > 500 µg/mL
[2]
  IC50: 283 µg/mL (≈ 873 µM)
  IC90: > 500 µg/mL
[3]
  IC50: > 300 µg/mL
  IC90: > 500 µg/mL

## CC1(C)CC(=O)C2=C(C1)OC(N)=C(C#N)C2c1ccc(S(C)(=O)=O)cc1 (stereo not drawn)
4T1 [1]
  IC50: > 300 µg/mL
  IC90: > 500 µg/mL
[2]
  IC50: > 300 µg/mL
  IC90: > 500 µg/mL
[3]
  IC50: > 300 µg/mL
  IC90: > 500 µg/mL

## CC1(C)CC(=O)C2=C(C1)OC(N)=C(C#N)C2c1cc(F)c(F)c(F)c1 (stereo not drawn)
4T1 [1]
  IC50: 241 µg/mL (≈ 692 µM)
  IC90: > 500 µg/mL
[2]
  IC50: 297 µg/mL (≈ 854 µM)
  IC90: > 500 µg/mL
[3]
  IC50: 283 µg/mL (≈ 812 µM)
  IC90: > 500 µg/mL

## N#CC1=C(N)OC2=C(C(=O)CC2)C1c1cccc(C#N)c1 (stereo not drawn)
4T1 [1]
  IC50: 125 µg/mL (≈ 452 µM)
  IC90: 299 µg/mL (≈ 1080 µM)
[2]
  IC50: 191 µg/mL (≈ 690 µM)
  IC90: 381 µg/mL (≈ 1370 µM)
[3]
  IC50: 143 µg/mL (≈ 515 µM)
  IC90: 317 µg/mL (≈ 1140 µM)

## COc1ccc(C(c2c(O)c3ccccc3oc2=O)c2c(O)c3ccccc3oc2=O)cc1
HEK293 [4]
  IC50: 165 µg/mL (≈ 373 µM)
[5]
  IC90 at 48 h: 322 µg/mL (≈ 727 µM)
4T1 [1]
  IC50: 85.7 µg/mL (≈ 194 µM)
  IC90: 167 µg/mL (≈ 377 µM)
HEK293 [6]
  Ratio IC50: 1.9
Mus musculus [7]
  Activity: Non-toxic
Mus musculus [8]
  Activity: Non-toxic
[9]
  IC90 at 48 h: 363 µg/mL (≈ 821 µM)
HUVEC
  IC50: 199 µg/mL (≈ 450 µM)
Mus musculus [10]
  Activity: Non-toxic
Mus musculus [11]
  Activity: Non-toxic
Mus musculus [12]
  Activity: Non-toxic
[2]
  IC50: 53.8 µg/mL (≈ 122 µM)
  IC90: 103 µg/mL (≈ 233 µM)
Mus musculus [13]
  Activity: Non-toxic
HEK293 [14]
  Ratio IC50: 3.1
[3]
  IC50: 42.5 µg/mL (≈ 96.1 µM)
  IC90: 82.5 µg/mL (≈ 186 µM)
HuTu80
  Ratio IC50: 3.7
PANC-1
  Ratio IC50: 4.7
Mus musculus [15]
  Activity: Non-toxic
Mus musculus [16]
  Activity: Non-toxic
Mus musculus [17]
  Activity: Non-toxic
Mus musculus [18]
  Activity: Non-toxic
Mus musculus [19]
  Activity: Non-toxic
HEK293 [20]
  Ratio IC50: 3.9
4T1 [21]
  Ratio IC50: 2.3
